Some results are limits rather than exact numbers.

The term IC50 denotes the concentration needed to halve the response being measured.

T1 sequence (O76083 1-533 isoform O76083-2): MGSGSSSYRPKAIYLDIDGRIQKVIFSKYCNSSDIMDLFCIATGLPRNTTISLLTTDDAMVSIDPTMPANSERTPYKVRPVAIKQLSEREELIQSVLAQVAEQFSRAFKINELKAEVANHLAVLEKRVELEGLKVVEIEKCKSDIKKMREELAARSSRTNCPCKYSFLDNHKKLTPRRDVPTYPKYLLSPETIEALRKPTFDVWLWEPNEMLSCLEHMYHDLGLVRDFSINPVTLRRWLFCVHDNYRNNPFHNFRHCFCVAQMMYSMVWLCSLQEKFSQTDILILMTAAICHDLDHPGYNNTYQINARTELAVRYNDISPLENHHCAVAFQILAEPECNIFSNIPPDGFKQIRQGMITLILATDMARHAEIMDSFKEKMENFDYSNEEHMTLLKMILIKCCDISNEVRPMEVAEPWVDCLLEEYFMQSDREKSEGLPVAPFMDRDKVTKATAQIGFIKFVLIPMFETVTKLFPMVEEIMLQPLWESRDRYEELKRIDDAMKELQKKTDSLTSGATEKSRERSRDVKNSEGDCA

One assay concerns the target T1, PDE9A2 (Homo sapiens, UniProt O76083).
T1 construct: purchased Reaction Biology Corporation, Malvern, Pa
Put plainly: Phosphodiesterase enzyme screening assay, PDE9A2. The note with it: 4.0 μM cGMP substrate, 1 hour at R.T.; read-out: Band (PDE9A2 IC50). The class given is biochemical. The procedure, abridged: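 Reaction started by adding substrate (4.0 μM cGMP) to recombinant human enzyme in HEPES pH 7.5 buffer with MgCl2, DTT and Brij; 1 h at room temperature; quenched with EDTA-containing stop buffer; product and substrate resolved electrophoretically and quantified by fluorescence relative to uninhibited controls.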
Turning to `CC1CN(Cc2nc3ccccn3n2)CC1c1nn2c(CC(F)(F)F)ncc2c(=O)[nH]1` (stereo not drawn) [2-((3,4-trans)-1-([1,2,4]triazolo[1,5-a]pyridin-2-ylmethyl)-4-methylpyrrolidin-3-yl)-7-(2,2,2-trifluoroethyl)imidazo[5,1-f][1,2,4]triazin-4(3H)-one], the IC50 was less than 1000 nM.

Staying with this assay, now noted: Table 1; 10 concentrations; 4.0 μM cGMP substrate; 1 hour at R.T.; read-out: Band (PDE9A2 IC50).
For the compound `CC1CN(C(C)c2ccccc2)CC1c1nn2c(C3CCOCC3)ncc2c(=O)[nH]1` (single isomer, unassigned; (-)), the IC50 was less than 1000 nM.
Same read-out and setting: the result for `CC1CN(Cc2ccccc2)CC1c1nn2c(C3CCOC3)ncc2c(=O)[nH]1` (single isomer, unassigned; (-)) [(−)-2-(1-(3,4-trans)-benzyl-4-methylpyrrolidin-3-yl)-7-(tetrahydrofuran-3-yl)imidazo[5,1-f][1,2,4]triazin-4(3H)-one] reads 1000 to 10000 nM.
Same read-out and setting: the result for `CC1CN(Cc2ccccc2F)CC1c1nn2c(C3CCOCC3)ncc2c(=O)[nH]1` (single isomer, unassigned; (-)) [(−)-2-((3,4-trans)-1-(2-fluorobenzyl)-4-methylpyrrolidin-3-yl)-7-(tetrahydro-2H-pyran-4-yl)imidazo[5,1-f][1,2,4]triazin-4(3H)-one] reads less than 1000 nM; that for `CC1CN(C(=O)c2ccc(F)cc2)CC1c1nn2c(C3CCOCC3)ncc2c(=O)[nH]1` (single isomer, unassigned; (-)) [(−)-2-((3,4-trans)-1-(4-fluorobenzoyl)-4-methylpyrrolidin-3-yl)-7-(tetrahydro-2H-pyran-4-yl)imidazo[5,1-f][1,2,4]triazin-4(3H)-one], less than 1000 nM; that for `CC1CN(Cc2ccc(F)cc2)CC1c1nn2c(C3CCOCC3)ncc2c(=O)[nH]1` (single isomer, unassigned; (-)) [(−)-2-((3,4-trans)-1-(4-fluorobenzyl)-4-methylpyrrolidin-3-yl)-7-(tetrahydro-2H-pyran-4-yl)imidazo[5,1-f][1,2,4]triazin-4(3H)-one], less than 1000 nM.
Still for that read-out and setting: with `CC1CN(S(=O)(=O)c2ccc(F)cc2)CC1c1nn2c(C3CCOCC3)ncc2c(=O)[nH]1` (single isomer, unassigned; (-)) [(−)-2-((3,4-trans)-1-((4-fluorophenyl)sulfonyl)-4-methylpyrrolidin-3-yl)-7-(tetrahydro-2H-pyran-4-yl)imidazo[5,1-f][1,2,4]triazin-4(3H)-one] the figure was 1000 to 10000 nM.
Consider `COc1cccc(CN2CC(C)C(c3nn4c(C5CCOCC5)ncc4c(=O)[nH]3)C2)n1` (single isomer, unassigned; (-)) [(−)-2-((3,4-trans)-1-((6-methoxypyridin-2-yl)methyl)-4-methylpyrrolidin-3-yl)-7-(tetrahydro-2H-pyran-4-yl)imidazo[5,1-f][1,2,4]triazin-4(3H)-one], for which the IC50 is less than 1000 nM.
Same read-out and setting: with `CCS(=O)(=O)N1CC(C)C(c2nn3c(C4CCOCC4)ncc3c(=O)[nH]2)C1` (single isomer, unassigned; (-)) [(−)-2-((3,4-trans)-1-(ethylsulfonyl)-4-methylpyrrolidin-3-yl)-7-(tetrahydro-2H-pyran-4-yl)imidazo[5,1-f][1,2,4]triazin-4(3H)-one] the figure was less than 1000 nM.
Still for that read-out and setting: the result for `CC1CN(Cc2ccc3nccn3n2)CC1c1nn2c(C3CCOCC3)ncc2c(=O)[nH]1` (single isomer, unassigned; (-)) [(−)-2-((3,4-trans)-1-(imidazo[1,2-b]pyridazin-6-ylmethyl)-4-methylpyrrolidin-3-yl)-7-(tetrahydro-2H-pyran-4-yl)imidazo[5,1-f][1,2,4]triazin-4(3H)-one] reads less than 1000 nM; that for `CC1CN(C(=O)c2ccccc2)CC1c1nn2c(C3CCOCC3)ncc2c(=O)[nH]1` (single isomer, unassigned; (-)) [(−)-2-((3,4-trans)-1-benzoyl-4-methylpyrrolidin-3-yl)-7-(tetrahydro-2H-pyran-4-yl)imidazo[5,1-f][1,2,4]triazin-4(3H)-one], less than 1000 nM; that for `CC1CN(Cc2ccccc2)CC1c1nn2c(C3CCC(F)(F)CC3)ncc2c(=O)[nH]1` (single isomer, unassigned; (-)) [(−)-2-((3,4-trans)-1-benzyl-4-methylpyrrolidin-3-yl)-7-(4,4-difluorocyclohexyl)imidazo[5,1-f][1,2,4]triazin-4(3H)-one], less than 1000 nM.
On the same count and under the same terms, the result for `Cc1ccc(F)cc1-c1ncc2c(=O)[nH]c(C3CN(Cc4ccccc4)CC3C)nn12` (single isomer, unassigned; (-)) [(−)-2-((3,4-trans)-1-benzyl-4-methylpyrrolidin-3-yl)-7-(5-fluoro-2-methylphenyl)imidazo[1,5-f][1,2,4]triazin-4(3H)-one] reads 1000 to 10000 nM.
For `CC1CN(C(=O)c2ccncc2)CC1c1nn2c(C3CCOCC3)ncc2c(=O)[nH]1` (single isomer, unassigned; (-)) [(−)-2-((3,4-trans)-1-isonicotinoyl-4-methylpyrrolidin-3-yl)-7-(tetrahydro-2H-pyran-4-yl)imidazo[5,1-f][1,2,4]triazin-4(3H)-one], the IC50 is less than 1000 nM.
As to `CC1CN(C(=O)c2ccccc2C#N)CC1c1nn2c(C3CCOCC3)ncc2c(=O)[nH]1` (single isomer, unassigned; (-)) [(−)-2-((3,4-trans)-3-methyl-4-(4-oxo-7-(tetrahydro-2H-pyran-4-yl)-3,4-dihydroimidazo[5,1-f][1,2,4]triazin-2-yl)pyrrolidine-1-carbonyl)benzonitrile], the IC50 was less than 1000 nM.
Same read-out and setting: with `CC1CN(S(=O)(=O)c2ccccc2)CC1c1nn2c(C3CCOCC3)ncc2c(=O)[nH]1` (single isomer, unassigned; (-)) [(−)-2-((3,4-trans)-4-methyl-1-(phenylsulfonyl)pyrrolidin-3-yl)-7-(tetrahydro-2H-pyran-4-yl)imidazo[5,1-f][1,2,4]triazin-4(3H)-one] the figure was 1000 to 10000 nM; with `CC1CN(C(=O)c2cnccn2)CC1c1nn2c(C3CCOCC3)ncc2c(=O)[nH]1` (single isomer, unassigned; (-)) [(−)-2-((3,4-trans)-4-methyl-1-(pyrazine-2-carbonyl)pyrrolidin-3-yl)-7-(tetrahydro-2H-pyran-4-yl)imidazo[5,1-f][1,2,4]triazin-4(3H)-one], less than 1000 nM.
The same measure, in the same setting: with `CC1CN(Cc2ccccn2)CC1c1nn2c(C3CCOCC3)ncc2c(=O)[nH]1` (single isomer, unassigned; (-)) [(−)-2-((3,4-trans)-4-methyl-1-(pyridin-2-ylmethyl)pyrrolidin-3-yl)-7-(tetrahydro-2H-pyran-4-yl)imidazo[5,1-f][1,2,4]triazin-4(3H)-one] the figure was less than 1000 nM; with `CC1CN(C(=O)c2ncccn2)CC1c1nn2c(C3CCOCC3)ncc2c(=O)[nH]1` (single isomer, unassigned; (-)) [(−)-2-((3,4-trans)-4-methyl-1-(pyrimidine-2-carbonyl)pyrrolidin-3-yl)-7-(tetrahydro-2H-pyran-4-yl)imidazo[5,1-f][1,2,4]triazin-4(3H)-one], less than 1000 nM.
On to `CC1CN(C(=O)c2ccncn2)CC1c1nn2c(C3CCOCC3)ncc2c(=O)[nH]1` (single isomer, unassigned; (-)) [(−)-2-((3,4-trans)-4-methyl-1-(pyrimidine-4-carbonyl)pyrrolidin-3-yl)-7-(tetrahydro-2H-pyran-4-yl)imidazo[5,1-f][1,2,4]triazin-4(3H)-one], for which the IC50 is less than 1000 nM.
Same read-out and setting: the result for `CC1CN(C(=O)c2cncnc2)CC1c1nn2c(C3CCOCC3)ncc2c(=O)[nH]1` (single isomer, unassigned; (-)) [(−)-2-((3,4-trans)-4-methyl-1-(pyrimidine-5-carbonyl)pyrrolidin-3-yl)-7-(tetrahydro-2H-pyran-4-yl)imidazo[5,1-f][1,2,4]triazin-4(3H)-one] reads less than 1000 nM; that for `CC1CN(C(=O)c2ccccn2)CC1c1nn2c(C3CCOCC3)ncc2c(=O)[nH]1` (single isomer, unassigned; (-)) [(−)-2-((3,4-trans)-4-methyl-1-picolinoylpyrrolidin-3-yl)-7-(tetrahydro-2H-pyran-4-yl)imidazo[5,1-f][1,2,4]triazin-4(3H)-one], less than 1000 nM.
As for `CC1CN(Cc2ccccc2C#N)CC1c1nn2c(C3CCOCC3)ncc2c(=O)[nH]1` (single isomer, unassigned; (-)) [(−)-2-(((3,4-trans)-3-methyl-4-(4-oxo-7-(tetrahydro-2H-pyran-4-yl)-3,4-dihydroimidazo[5,1-f][1,2,4]triazin-2-yl)pyrrolidin-1-yl)methyl)benzonitrile], the IC50 is less than 1000 nM.
The same measure, in the same setting: the result for `CC1CN(S(=O)(=O)c2ccccc2C#N)CC1c1nn2c(C3CCOCC3)ncc2c(=O)[nH]1` (single isomer, unassigned; (-)) [(−)-2-(((3,4-trans)-3-methyl-4-(4-oxo-7-(tetrahydro-2H-pyran-4-yl)-3,4-dihydroimidazo[5,1-f][1,2,4]triazin-2-yl)pyrrolidin-1-yl)sulfonyl)benzonitrile] reads less than 1000 nM; that for `CC1CN(Cc2cccc(C#N)c2)CC1c1nn2c(C3CCOCC3)ncc2c(=O)[nH]1` (single isomer, unassigned; (-)) [(−)-3-(((3,4-trans)-3-methyl-4-(4-oxo-7-(tetrahydro-2H-pyran-4-yl)-3,4-dihydroimidazo[5,1-f][1,2,4]triazin-2-yl)pyrrolidin-1-yl)methyl)benzonitrile], less than 1000 nM; that for `Cc1ccc(F)cc1-c1ncc2c(=O)[nH]c(C3CN(Cc4ncccn4)CC3C)nn12` (single isomer, unassigned; (-)) [(−)-7-(5-fluoro-2-methylphenyl)-2-((3,4-trans)-4-methyl-1-(pyrimidin-2-ylmethyl)pyrrolidin-3-yl)imidazo[1,5-f][1,2,4]triazin-4(3H)-one], 1000 to 10000 nM.
Still for that read-out and setting: the result for `CC1CN(Cc2ccccc2)CC1c1nn2c(C3CCN(C(=O)OC(C)(C)C)CC3)ncc2c(=O)[nH]1` (single isomer, unassigned; (-)) [(−)-tert-butyl 4-(2-((3,4-trans)-1-benzyl-4-methylpyrrolidin-3-yl)-4-oxo-3,4-dihydroimidazo[1,5-f][1,2,4]triazin-7-yl)piperidine-1-carboxylate] reads more than 10000 nM.

These data come from patent US9969742B2, “Imidazotriazinone compounds” (Ironwood Pharmaceuticals, Inc., priority 2012, dated 2018).
